ChEMBL document CHEMBL1201862, “PubChem BioAssay data set” (2004)
Calls of active or inactive are those of the source.

Assays:
[1] = target: T1, Microphthalmia-associated transcription factor (Homo sapiens, UniProt O75030); test: TRPM1 promoter luciferase signal decrease, dose response, MITF inhibitor project, cell-based, SK-MEL-5, cherry-picked, set 3 (AID 493073); assay type: functional
T1 sequence (O75030 whole entry): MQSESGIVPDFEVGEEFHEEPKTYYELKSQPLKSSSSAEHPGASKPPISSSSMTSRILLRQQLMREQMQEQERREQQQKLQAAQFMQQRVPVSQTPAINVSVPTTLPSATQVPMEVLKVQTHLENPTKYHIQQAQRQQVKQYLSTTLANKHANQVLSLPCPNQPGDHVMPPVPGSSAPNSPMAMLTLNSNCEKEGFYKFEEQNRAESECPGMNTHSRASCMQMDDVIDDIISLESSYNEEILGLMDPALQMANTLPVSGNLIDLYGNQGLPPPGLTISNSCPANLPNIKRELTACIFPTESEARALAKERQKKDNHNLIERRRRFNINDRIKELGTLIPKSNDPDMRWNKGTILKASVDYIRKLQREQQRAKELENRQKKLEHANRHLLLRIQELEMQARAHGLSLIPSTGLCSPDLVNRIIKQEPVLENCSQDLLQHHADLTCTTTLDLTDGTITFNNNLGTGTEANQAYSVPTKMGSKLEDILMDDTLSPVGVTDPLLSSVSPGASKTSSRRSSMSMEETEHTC

[2] = target: T2, Oxysterols receptor LXR-beta (Homo sapiens, UniProt P55055); assay type: functional, cell-based;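 further: Cell-based luminescence dose-response assay of agonist activity at LXR, run as a confirmatory counterscreen to a daf-12 agonist screen; agonist potency from rising luciferase signal of a Gal4-LXR reporter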
T2 sequence (P55055 whole entry): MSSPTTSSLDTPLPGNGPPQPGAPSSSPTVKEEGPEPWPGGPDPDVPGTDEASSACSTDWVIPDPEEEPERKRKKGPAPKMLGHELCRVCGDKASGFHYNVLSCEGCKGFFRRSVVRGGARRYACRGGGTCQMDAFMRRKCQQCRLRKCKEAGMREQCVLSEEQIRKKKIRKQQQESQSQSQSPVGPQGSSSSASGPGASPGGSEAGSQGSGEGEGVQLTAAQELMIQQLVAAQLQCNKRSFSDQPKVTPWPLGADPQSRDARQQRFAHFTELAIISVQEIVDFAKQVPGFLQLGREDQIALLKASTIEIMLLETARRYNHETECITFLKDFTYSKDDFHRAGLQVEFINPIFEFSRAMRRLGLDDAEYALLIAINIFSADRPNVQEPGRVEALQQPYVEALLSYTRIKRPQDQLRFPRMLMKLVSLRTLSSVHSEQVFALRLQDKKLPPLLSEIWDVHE

cells [3] = test: cells
[4] = A cytotoxicity screen of small molecule inhibitors of the PhoP region in Salmonella typhi identified in the primary screen. [Related pubchem assays: 1850, 1864, 1985 ]; assay type: functional
[5] = Luminescence-based cell-based high throughput dose response assay to identify activators of the DAF-12 from the parasite S. stercoralis (ssDAF-12).; assay type: functional
[6] = target: T2, Oxysterols receptor LXR-beta; test: LXR agonists, Gal4 luciferase reporter, dose response, counter-screen for ssDAF-12 agonist project, cell-based, luminescence, HEK293, S. stercoralis campaign (AID 720737); assay type: functional; conditions: read-out: IC50 (the source's name)
[7] = target: NAD-dependent protein deacylase sirtuin-5, mitochondrial (Homo sapiens, UniProt Q9NXA8); test: SIRT5 desuccinylase inhibitors, dose response, biochemical, fluorescence imaging, cherry-pick, set 5 (AID 720591);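 further: desuccinylation of succinyl peptide AMC substrate read as fluorescence after trypsin release; potency of inhibitors that lower fluorescence and may act on trypsin instead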
Sequence of NAD-dependent protein deacylase sirtuin-5, mitochondrial (Q9NXA8 whole entry): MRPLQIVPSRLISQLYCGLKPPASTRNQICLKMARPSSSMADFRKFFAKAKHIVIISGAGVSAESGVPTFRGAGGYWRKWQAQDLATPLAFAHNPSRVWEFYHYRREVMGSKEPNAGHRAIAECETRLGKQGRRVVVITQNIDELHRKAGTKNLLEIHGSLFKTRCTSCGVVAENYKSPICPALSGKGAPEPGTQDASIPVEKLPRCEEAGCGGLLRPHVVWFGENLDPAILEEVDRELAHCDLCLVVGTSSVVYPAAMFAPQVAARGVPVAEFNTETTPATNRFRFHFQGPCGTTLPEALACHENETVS

[8] = target: T3, Polyadenylate-binding protein 1 (Homo sapiens, UniProt P11940); test: PABP1 MLLE–PAM2 interaction inhibitors, dose response, miRNA deadenylation inhibitor project, biochemical, fluorescence polarization, Cy5-PAM2 peptide, secondary (AID 602260); assay type: functional; conditions: read-out: IC50_Mean
T3 sequence (P11940 whole entry): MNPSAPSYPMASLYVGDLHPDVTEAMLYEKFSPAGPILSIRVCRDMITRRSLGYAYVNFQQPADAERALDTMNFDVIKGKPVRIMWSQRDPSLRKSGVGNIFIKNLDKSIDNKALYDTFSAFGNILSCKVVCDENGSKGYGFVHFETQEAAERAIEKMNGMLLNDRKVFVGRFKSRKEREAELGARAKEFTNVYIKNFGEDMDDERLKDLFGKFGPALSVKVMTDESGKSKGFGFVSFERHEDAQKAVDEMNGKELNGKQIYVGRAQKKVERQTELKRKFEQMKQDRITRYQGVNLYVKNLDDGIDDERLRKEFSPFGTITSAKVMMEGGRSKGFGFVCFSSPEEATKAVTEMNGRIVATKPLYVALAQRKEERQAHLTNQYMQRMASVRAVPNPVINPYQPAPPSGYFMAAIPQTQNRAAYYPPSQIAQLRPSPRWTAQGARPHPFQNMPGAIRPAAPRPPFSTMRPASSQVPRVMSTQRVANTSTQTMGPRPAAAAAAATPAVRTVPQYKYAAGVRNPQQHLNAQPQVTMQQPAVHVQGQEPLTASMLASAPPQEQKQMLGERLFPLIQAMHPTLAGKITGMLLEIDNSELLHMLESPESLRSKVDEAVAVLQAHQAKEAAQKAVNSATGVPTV

[9] = target: T3, Polyadenylate-binding protein 1; test: PABP1 MLLE–PAM2 binding inhibitor potency, dose response, biochemical, fluorescence polarization, FITC-PAM2 peptide (AID 602259); assay type: functional; conditions: read-out: IC50_Mean
[10] = P. falciparum late gametocyte killing, dose response, luminescence (AID 1117278); assay type: functional, cell-based;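 further: gametocytes exposed to compound for 24 hours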
[11] = Jurkat T cell cytotoxicity, dose response, cytotoxicity control for P. falciparum gametocyte viability project, luminescence (AID 1117277); assay type: functional, cell-based;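 further: potency reflects loss of cellular ATP meaning fewer viable cells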
[12] = target: T4, Calpain-2 catalytic subunit (Sus scrofa, UniProt P43367); test: pig calpain II inhibitor potency, dose response, biochemical, fluorogenic peptide substrate (AID 1420); assay type: functional
T4 sequence (P43367 whole entry): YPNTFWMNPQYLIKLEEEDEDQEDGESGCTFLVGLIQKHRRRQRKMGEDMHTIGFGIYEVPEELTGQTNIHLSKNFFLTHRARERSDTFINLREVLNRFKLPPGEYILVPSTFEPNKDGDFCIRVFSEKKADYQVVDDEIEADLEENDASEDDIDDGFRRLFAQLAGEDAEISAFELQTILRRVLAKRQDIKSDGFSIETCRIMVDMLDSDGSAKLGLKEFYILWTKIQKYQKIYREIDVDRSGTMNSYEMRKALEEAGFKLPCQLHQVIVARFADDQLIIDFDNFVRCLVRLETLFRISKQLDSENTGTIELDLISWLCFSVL

Estrogen receptor beta [13] = target: T5, Estrogen receptor beta (Homo sapiens, UniProt Q92731);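 further: recombinant ER-beta bound to coactivator SRC1 peptide in presence of estradiol agonist; inhibitors block coactivator peptide binding and lower the FRET signal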
T5 sequence (Q92731 whole entry): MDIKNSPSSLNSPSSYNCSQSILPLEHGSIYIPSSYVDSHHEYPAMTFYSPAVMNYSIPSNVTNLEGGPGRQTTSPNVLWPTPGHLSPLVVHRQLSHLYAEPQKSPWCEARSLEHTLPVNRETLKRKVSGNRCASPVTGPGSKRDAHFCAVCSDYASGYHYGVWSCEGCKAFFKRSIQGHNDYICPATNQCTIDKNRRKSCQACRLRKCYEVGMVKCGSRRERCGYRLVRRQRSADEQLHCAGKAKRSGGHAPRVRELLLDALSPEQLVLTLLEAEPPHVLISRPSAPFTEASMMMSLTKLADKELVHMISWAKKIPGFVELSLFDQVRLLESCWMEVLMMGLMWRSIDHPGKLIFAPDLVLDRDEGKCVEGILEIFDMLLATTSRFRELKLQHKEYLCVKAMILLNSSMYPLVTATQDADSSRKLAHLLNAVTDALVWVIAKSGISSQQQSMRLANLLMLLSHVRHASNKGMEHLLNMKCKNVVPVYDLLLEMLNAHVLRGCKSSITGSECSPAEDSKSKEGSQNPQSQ

Estrogen receptor beta [14] = target: T5, Estrogen receptor beta; test: ERβ–SRC-3 coactivator interaction inhibitors, confirmation, orthogonal assay, biochemical, ELISA, streptavidin-HRP readout (AID 1060)
[15] = inhibitors of PGC1a acetylation in cells, dose response, cell-based, cherry-picked samples (AID 720514); assay type: functional;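 further: potency may reflect raised or lowered acetylation signal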
[16] = inhibitors of intracellular T. cruzi replication, confirmation, NIH3T3 host cells, beta-gal luminescence (AID 2044); assay type: functional, cell-based;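 further: intracellular parasites grown in NIH/3T3 mouse fibroblasts as host cells; luminescent beta-galactosidase reporter signal from transgenic T. cruzi replicating inside host cells; inhibitors lower the luminescence signal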
[17] = cytotoxicity toward NIH3T3 fibroblasts, dose response, counter-screen, cell-based, ATP luminescence, mouse fibroblasts (AID 2010); assay type: functional;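 further: cells exposed to compound for about 90 hours before reading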
cells [18] = test: cells; remark: listed apart in the source
Nonstructural protein 1 = Nonstructural protein 1 (Influenza A virus, UniProt Q194T2); assay type: functional, Influenza A virus (A/California/07/2009(H1N1))
Sequence of Nonstructural protein 1 (Q194T2 whole entry): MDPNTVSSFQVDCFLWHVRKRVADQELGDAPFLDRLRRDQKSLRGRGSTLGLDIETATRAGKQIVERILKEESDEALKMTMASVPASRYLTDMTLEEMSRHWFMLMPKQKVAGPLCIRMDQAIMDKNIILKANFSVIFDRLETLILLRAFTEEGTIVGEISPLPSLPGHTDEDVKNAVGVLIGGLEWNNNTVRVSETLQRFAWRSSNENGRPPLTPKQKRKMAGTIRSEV

[19] = tested on: Streptococcus sp. 'group A'; test: growth inhibition of control SK(-) GAS strain, dose response, counter-screen for streptokinase expression inhibitor project, luminescence, kanamycin, BacTiterGlo, confirmation (AID 1900); assay type: functional, organism-based
Streptokinase A = target: T6, Streptokinase A (Streptococcus pyogenes serotype M1, UniProt P10520); test: S. pyogenes streptokinase expression inhibitors, potency, dose response, plasminogen activation absorbance, OD405 (AID 1914); assay type: functional, Streptococcus pyogenes M1 GAS;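 further: secreted streptokinase activity via plasminogen activation per viability signal from cell pellet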
T6 sequence (P10520 whole entry): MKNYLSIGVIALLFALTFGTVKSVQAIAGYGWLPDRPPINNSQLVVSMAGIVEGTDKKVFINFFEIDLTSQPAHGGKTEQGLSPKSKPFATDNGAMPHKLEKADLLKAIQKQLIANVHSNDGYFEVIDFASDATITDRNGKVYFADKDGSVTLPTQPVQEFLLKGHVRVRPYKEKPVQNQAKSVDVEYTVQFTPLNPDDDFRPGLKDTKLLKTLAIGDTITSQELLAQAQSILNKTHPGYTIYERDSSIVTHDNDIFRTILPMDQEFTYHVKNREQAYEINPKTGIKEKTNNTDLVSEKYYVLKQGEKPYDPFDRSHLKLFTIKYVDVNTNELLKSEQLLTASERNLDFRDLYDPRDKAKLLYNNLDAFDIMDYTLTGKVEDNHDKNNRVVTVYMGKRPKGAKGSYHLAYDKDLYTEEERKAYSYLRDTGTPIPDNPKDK

Streptococcus = test: Group A Streptococcus viability loss, dose response, counter-screen for streptokinase expression inhibitor project, luminescence, BacTiterGlo (AID 1915); assay type: functional, organism-based;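 further: potency for reduction of bacterial viability or growth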
[20] = target: Neurotensin receptor type 1 (Homo sapiens, UniProt P30989); assay type: functional;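 further: Image-based confirmatory dose-response assay measuring agonist activity at NTR1; NTR1-expressing U2OS osteosarcoma cells imaged for beta-arrestin GFP spot formation; agonist potency where compounds increase beta-arrestin recruitment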
Sequence of Neurotensin receptor type 1 (P30989 whole entry): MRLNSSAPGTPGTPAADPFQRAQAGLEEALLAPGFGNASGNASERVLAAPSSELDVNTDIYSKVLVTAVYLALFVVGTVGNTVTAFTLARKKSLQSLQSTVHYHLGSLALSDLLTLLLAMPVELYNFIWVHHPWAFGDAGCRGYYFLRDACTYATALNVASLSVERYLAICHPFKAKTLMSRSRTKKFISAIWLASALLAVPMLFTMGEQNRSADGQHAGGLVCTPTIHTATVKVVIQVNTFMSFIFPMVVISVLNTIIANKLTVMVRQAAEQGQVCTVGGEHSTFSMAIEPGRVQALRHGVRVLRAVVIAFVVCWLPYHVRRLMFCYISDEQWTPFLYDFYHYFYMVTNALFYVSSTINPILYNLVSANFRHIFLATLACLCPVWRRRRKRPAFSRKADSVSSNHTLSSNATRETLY

Cytochrome P450 2C19 = Cytochrome P450 2C19 (Homo sapiens, UniProt P33261); test: Cytochrome panel assay with activity outcomes. Panel member name: p450-cyp2c19 Compounds with AC50 equal or less than 10 uM are considered active; assay type: functional; conditions: read-out: AC50
Sequence of Cytochrome P450 2C19 (P33261 whole entry): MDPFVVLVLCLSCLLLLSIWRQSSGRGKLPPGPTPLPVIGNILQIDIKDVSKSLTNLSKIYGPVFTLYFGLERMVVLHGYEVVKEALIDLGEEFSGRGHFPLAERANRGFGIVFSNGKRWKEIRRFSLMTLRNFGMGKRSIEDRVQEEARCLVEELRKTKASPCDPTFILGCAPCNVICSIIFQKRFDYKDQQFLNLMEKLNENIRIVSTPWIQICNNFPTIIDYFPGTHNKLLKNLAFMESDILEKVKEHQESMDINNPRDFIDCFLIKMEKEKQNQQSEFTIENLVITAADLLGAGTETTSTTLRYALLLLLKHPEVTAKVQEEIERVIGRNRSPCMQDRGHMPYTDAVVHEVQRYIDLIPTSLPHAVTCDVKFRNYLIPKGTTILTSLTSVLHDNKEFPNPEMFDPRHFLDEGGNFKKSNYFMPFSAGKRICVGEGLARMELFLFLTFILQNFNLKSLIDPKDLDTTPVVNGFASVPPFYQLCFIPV

Cytochrome P450 2C9 = Cytochrome P450 2C9 (Homo sapiens, UniProt P11712)
Sequence of Cytochrome P450 2C9 (P11712 whole entry): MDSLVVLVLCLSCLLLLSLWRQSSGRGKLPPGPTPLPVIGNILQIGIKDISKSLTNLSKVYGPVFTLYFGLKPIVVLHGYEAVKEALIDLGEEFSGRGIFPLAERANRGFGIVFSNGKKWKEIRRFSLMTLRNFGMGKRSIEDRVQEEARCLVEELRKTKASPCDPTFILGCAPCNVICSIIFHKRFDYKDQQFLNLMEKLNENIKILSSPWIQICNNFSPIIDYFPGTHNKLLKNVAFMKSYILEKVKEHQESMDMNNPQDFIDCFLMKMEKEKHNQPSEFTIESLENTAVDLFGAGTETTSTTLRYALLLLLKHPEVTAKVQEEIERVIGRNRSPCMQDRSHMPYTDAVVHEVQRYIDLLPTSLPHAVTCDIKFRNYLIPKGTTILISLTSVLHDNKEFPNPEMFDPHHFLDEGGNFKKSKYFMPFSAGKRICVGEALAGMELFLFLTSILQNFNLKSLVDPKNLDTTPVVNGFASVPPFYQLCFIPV

Clc1cccc(-c2nc(-c3ccccn3)no2)c1
AC50 [1]: 5.92 µM (active) | EC50 [2]: > 67.5 µM (inactive) | EC50 (cells [3]): > 67.5 µM (inactive)

C/C(=N\Nc1ccc(C)c(Cl)c1)c1cccnc1
EC50 [4]: > 50 µM (active)

Cc1ccc(N/C=C/C(=O)c2ccccc2)cc1Br
IC50 [5]: > 67.6 µM (inactive) | EC50 [6]: > 67.6 µM (inactive)

NC(=O)c1ccc(C(F)(F)F)cn1
AC50 [7]: > 30 µM (inactive)

O=C1CCCC(=O)C1CS(=O)(=O)c1ccccc1
IC50 [8]: > 66 µM (inactive) | IC50 [9]: > 66 µM (inactive) | IC50 [10]: > 109 µM (inactive) | IC50 [11]: > 83.2 µM (inactive)

c1ccc(-c2ccc(-c3ccccn3)s2)nc1
IC50 [5]: > 67.6 µM (inactive) | EC50 [6]: > 67.6 µM (inactive) | EC50 [2]: > 67.5 µM (inactive) | EC50 (cells [3]): > 67.5 µM (inactive)

CCc1sc(C(=O)N2CCc3ccccc32)cc1C
IC50 [12]: 9.39 µM (not active) | IC50 [5]: > 67.5 µM (inactive) | EC50 [6]: > 67.5 µM (inactive)

O=C(Cc1cccs1)Nc1ccc(S(=O)(=O)Nc2ncccn2)cc1
IC50 (Estrogen receptor beta [13]): < 1.56 µM (active) | IC50 (Estrogen receptor beta [14]): 0.0699 µM (not active)

O=C(N/N=C/c1ccc(N2CCOCC2)cc1)c1ccc(O)cc1
EC50 [4]: > 50 µM (active)

Cc1ccc(S(=O)(=O)Nc2ccccc2C(=O)NCc2cccnc2)cc1
AC50 [15]: 25.6 µM (active)

CCc1ccc(-c2ccc(C(=O)O)c(C)n2)cc1
IC50 [10]: > 109 µM (inactive) | IC50 [11]: > 83.2 µM (inactive)

COC(=O)c1ccccc1N(C)S(=O)(=O)c1cc2c(cc1C)OCC(=O)N2
AC50 [15]: 24.1 µM (active)

CC(=O)Nc1ccccc1-c1nc2ccc(C(=O)N3CCN(c4cc(C)ccc4C)CC3)cc2nc1O
EC50 [4]: > 50 µM (active)

CCOC(=O)c1c(NS(=O)(=O)c2cccc(OC)c2)sc2c1CCC2
IC50 [10]: > 109 µM (inactive) | IC50 [11]: > 83.3 µM (inactive)

Cc1noc(C)c1S(=O)(=O)N(CC(=O)O)c1ccc2c(c1)OCO2
IC50 (Estrogen receptor beta [13]): 9.71 µM (active) | IC50 (Estrogen receptor beta [14]): 0.084 µM (not active)

CCOC(=O)c1c(NC(=O)Cn2cnc([N+](=O)[O-])n2)sc2c1CCCC2
EC50 [16]: < 0.1 µM (active) | EC50 [17]: > 60 µM (not active) | EC50 (cells [18]): 0.121 µM (active)

CN(CC(=O)Nc1ccc2c(c1)CCC2)CC(=O)Nc1ccccc1Br
IC50 [10]: > 109 µM (inactive) | IC50 [11]: > 83.3 µM (inactive)

Cc1cc(C)c(NC(=O)CSc2nc3cc(Br)c[nH]c-3n2)c(C)c1
AC50 [7]: > 30 µM (inactive)

O=C(N/N=C/c1ccc(-c2ccccc2Cl)o1)c1ccccc1
EC50 [16]: < 0.1 µM (active) | EC50 [17]: > 60 µM (not active) | EC50 (cells [18]): 0.035 µM (active)

CC(C)NC1=NN=C(c2ccc(F)cc2)CS1
EC50 [4]: > 50 µM (active)

Cc1c(C)n(Cc2ccccc2)c2ccc(C(=O)OCCCN(C)C)cc12
EC50 [16]: < 0.1 µM (active) | EC50 [17]: > 30 µM (not active) | IC50 (Nonstructural protein 1): 43.7 µM (active) | EC50 (cells [18]): 0.153 µM (active)

CC1C(=O)N2CCCc3cc(S(=O)(=O)NCCc4ccccc4)cc1c32 (stereo not given)
AC50 [7]: > 30 µM (inactive)

NC(=O)CC(NC(=O)c1ccccc1)c1ccc(NCC2CC2)c([N+](=O)[O-])c1 (stereo not given)
IC50 [10]: > 109 µM (inactive) | IC50 [11]: > 83.3 µM (inactive)

CC(C)CC(c1nnnn1Cc1ccco1)N1CCN(c2cccc(Cl)c2)CC1 (stereo not given)
EC50 [4]: > 50 µM (active)

CO[C@H]1CN(C)C(=O)c2cc(NC(=O)NC(C)C)ccc2OC[C@H](C)N(Cc2ccc(-c3ccccn3)cc2)C[C@@H]1C
AC50 [15]: 22.6 µM (active)

Cn1c(CNc2ccc(F)cc2)nc2ccccc21
IC50 [5]: > 67.5 µM (inactive) | EC50 [6]: > 67.5 µM (inactive)

CCc1ccc(NS(=O)(=O)c2c(C)noc2C)cc1
AC50 [7]: > 30 µM (inactive)

Cc1cc(C)n(-c2nc(Nc3ccccc3C)nc(-n3nc(C)cc3C)n2)n1
EC50 [19]: 8.77 µM (active) | EC50 (Streptokinase A): > 150 µM (not active) | EC50 [16]: 1.07 µM (active) | EC50 [17]: > 60 µM (inconclusive) | EC50 (Streptococcus): 23.2 µM (active) | EC50 [20]: 7.86 µM (active) | AC50 (Cytochrome P450 2C19): 39.8 µM (inconclusive) | AC50 (Cytochrome P450 2C9): 15.8 µM (inconclusive)
